Experiments:
[1] = molecular target: T1, human glucagon receptor (Homo sapiens, UniProt P47871); experiment: Human glucagon receptor affinity ([125I]glucagon displacement, membrane preparation); type: binding; conditions: human glucagon receptor binding assay; stereo column says racemic or R-isomer; read-out: Hu IC50
T1 construct: host or cells: human liver samples or a recombinant cell line (alternatives)
Method: Compounds provided herein are dissolved in a suitable solvent (e.g., dimethlysulfoxide) at a concentration of 10 mM and then diluted in buffer (e.g., 50 mM Hepes, pH 7.4, 5 mM MgCl2, 1 mM CaCl2, and 0.2% BSA) to concentrations ranging from 1 nM to 100 μM. Compounds (20 μL/well) and [^125I]glucagon at the final concentration of 0.125 nM (20 μl/well) (Perkin Elmer) are added to and mixed in wells of a 96-well plate (Costar, Corning) containing 120 μL of buffer. Next, an appropriate aliquot of a membrane preparation containing the human glucagon receptor (isolated from human liver samples or obtained from a recombinant cell line) is added to the wells. The binding mixtures are incubated for 2 hrs at room temperature. In the meantime, a MultiScreen 96-well filter plate (Millipore) is treated with 200 μL of the buffer, which is vacuumed through the filter just before the binding mixtures are transferred to the plate. At the end of incubation, binding mixtures are transferred to the wells of the MultiScreen 96-well filter plate and filtered through by applying vacuum. The plate is washed once with 200 μL per well of the buffer, and the filters are dried and counted using a gamma counter.

[2] = system: human hepatocytes; experiment: Functional antagonism of glucagon-stimulated glucose production in hepatocytes; type: cell-based; conditions: human hepatocyte assay, 1 nM glucagon; read-out: Hu Hepatocyte EC50
Method: Primary human, monkey, dog, rat, or mouse hepatocytes are seeded onto collagen-coated 24-well plates in Williams E medium (supplemented with 10% fetal bovine serum) and incubated at 37° C. overnight in M199 medium (supplemented with 15 mM glucose and 10 nM human insulin). The following day cells are washed twice with a glucose-free Kreb-bicarbonate buffer, pH 7.4, containing 0.1% BSA. Cells are then incubated at 37° C. with the aforementioned buffer containing 1 nM glucagon and varying concentrations of a glucagon antagonist (0-100 microM). Control wells without glucagon or antagonist are also included. After 1 hour, an aliquot of the medium is removed and analyzed for glucose content by means of the glucose oxidase method. The background glucose levels observed in the control wells are subtracted from the glucagon and antagonist containing wells. A graph of % glucose concentration vs drug concentration is plotted and an EC50 value for inhibition of glucose production generated using Sigmaplot software (SAS, Cary, N.C.). Alternatively, intracellular cAMP levels are measured using standard kits and EC50 values determined by plotting these levels against drug concentration. Antagonists of the glucagon receptor inhibit glucagon-induced cAMP production.

[3] = Oral bioavailability in the rat; type: in vivo
[4] = system: db/db mouse; experiment: Glucose lowering in db/db mice; type: in vivo; conditions: oral gavage, freely-feeding db/db mice, 100% = normalization to lean db/+, read-out: % Glu lowering in db/db mouse @ 30 mg/kg
Method: To assess the effects of compounds provided herein on blood glucose levels in the db/db mouse, an animal model of type 2 diabetes, compounds are dissolved in polyethylene glycol-400 and administered by oral gavage to db/db mice in the freely-feeding state at doses of 30 and/or 100 mg/kg. Blood glucose levels are assessed in blood samples obtained by tail bleed at baseline (prior to drug administration) and at regular time intervals over 24 hrs using a portable glucometer such as the OneTouch or HemoCue meters. The magnitude of blood glucose lowering elicited by the compounds provided herein is determined by comparison to those in db/db mice administered only the vehicle. The percentage glucose lowering is calculated by factoring in the blood glucose levels of vehicle-treated lean db/+ (heterozygote) mice, with 100% representing the normalization of blood glucose levels from the hyperglycemic state (vehicle-treated db/db mice) to the normoglycemic state (vehicle-treated db/+ mice).

T1 sequence (P47871 26-477): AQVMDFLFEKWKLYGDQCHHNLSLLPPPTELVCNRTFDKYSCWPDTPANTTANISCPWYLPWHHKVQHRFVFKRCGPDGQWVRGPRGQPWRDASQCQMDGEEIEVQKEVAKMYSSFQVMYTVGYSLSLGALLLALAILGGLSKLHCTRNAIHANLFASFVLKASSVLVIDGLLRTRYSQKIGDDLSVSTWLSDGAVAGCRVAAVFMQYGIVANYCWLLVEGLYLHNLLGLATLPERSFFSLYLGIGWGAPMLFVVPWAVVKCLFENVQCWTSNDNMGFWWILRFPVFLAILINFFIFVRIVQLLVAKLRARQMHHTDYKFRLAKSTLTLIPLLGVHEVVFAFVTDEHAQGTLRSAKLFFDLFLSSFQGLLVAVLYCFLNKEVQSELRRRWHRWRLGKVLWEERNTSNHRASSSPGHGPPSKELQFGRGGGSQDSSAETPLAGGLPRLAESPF

| Structure (SMILES) | IC50 [1] | OBAV in rat [3] | EC50 [2] | inhibition in vivo at 30 mg/kg [4] |
| --- | --- | --- | --- | --- |
| Cc1cc(Cl)ccc1-c1ccc(NC(=O)[C@H](Cc2ccc(C(=O)NCCS(=O)(=O)O)cc2)c2ccc([C@H]3CC[C@@H](C(C)(C)C)CC3)cc2)cc1 | 9 nM | 54% | 3 nM | 53% |
| Cc1cc(-c2ccc(NC(=O)[C@H](Cc3ccc(C(=O)NCCS(=O)(=O)O)cc3)c3ccc(-c4ccc(C(C)(C)C)cc4)cc3)cc2)ccc1Cl | 6 nM | 62% | 31 nM | 33% |
| CC1(C)CC=C(c2ccc(NC(=O)[C@H](Cc3ccc(C(=O)NCCS(=O)(=O)O)cc3)c3ccc(-c4ccc(C(C)(C)C)cc4)cc3)cc2)CC1 | 8 nM | 69% | 36 nM | 29% |
| Cc1cc(C(F)(F)F)ccc1-c1ccc(NC(=O)C(Cc2ccc(C(=O)NCCS(=O)(=O)O)cc2)c2ccc(C3=CCC(C)(C)CC3)cc2)cc1 (racemic) | 11 nM |  | 30 nM | 20% |
| Cc1ccccc1-c1ccc(NC(=O)C(Cc2ccc(C(=O)NCCS(=O)(=O)O)cc2)c2ccc(-c3ccc(C(C)(C)C)cc3)cc2)cc1 (racemic) | 10 nM |  | 194 nM | 45% |
| Cc1cc(Cl)ccc1-c1ccc(NC(=O)[C@H](Cc2ccc(C(=O)NCCS(=O)(=O)O)cc2)c2cccc(C3CCC(C)(C)CC3)c2)cc1 | 10 nM | 52% | 12 nM | 45% |
| Cc1cccc2oc(-c3ccc(NC(=O)C(Cc4ccc(C(=O)NCCS(=O)(=O)O)cc4)c4ccc(C=CC(C)(C)C)cc4)cc3)nc12 (racemic) | 13 nM |  | 62 nM | 39% |
| Cc1cc(Cl)ccc1-c1ccc(NC(=O)C(Cc2ccc(C(=O)NCCS(=O)(=O)O)cc2)c2ccc(C3=CCC(C)(C)CC3)cc2)cc1 (racemic) | 17 nM | 48% | 49 nM | 42% |
| Cc1cc(Cl)ccc1-c1ccc(NC(=O)C(Cc2ccc(C(=O)NCCS(=O)(=O)O)cc2)c2ccc(C3CCC(C(C)(C)C)CC3)cc2)cc1 (racemic) | 12 nM |  | 41 nM | 58% |

The remaining compounds from weak to strong by IC50 [1], led by results:

| IC50 [1] | OBAV in rat [3] | Structure (SMILES) | EC50 [2] | inhibition in vivo at 30 mg/kg [4] |
| --- | --- | --- | --- | --- |
| 17 nM |  | CC(C)(C)c1ccc(-c2ccc(C(Cc3ccc(C(=O)NCCS(=O)(=O)O)cc3)C(=O)Nc3ccc(C4=CCCC4)cc3)cc2)cc1 (racemic) | 65 nM | 30% |
| 16 nM |  | CC(C)(C)C1CCC(c2ccc(C(Cc3ccc(C(=O)NCCS(=O)(=O)O)cc3)C(=O)Nc3ccc(-c4ccc(Cl)cc4Cl)cc3)cc2)CC1 (racemic) [drawing 106] |  | 25% |
| 15 nM |  | CC1(C)CC=C(c2cccc(C(Cc3ccc(C(=O)NCCS(=O)(=O)O)cc3)C(=O)Nc3ccc(-c4ccc(Cl)cc4Cl)cc3)c2)CC1 (racemic) | 30 nM | 28% |
| 9 nM | 38% | Cc1cc(Cl)ccc1-c1ccc(NC(=O)C(Cc2ccc(C(=O)NCCS(=O)(=O)O)cc2)c2cccc(C3=CCC(C)(C)CC3)c2)cc1 (racemic) | 26 nM | 56% |
| 5 nM | 73% | Cc1cc(C)c(-c2ccc(NC(=O)[C@H](Cc3ccc(C(=O)NCCS(=O)(=O)O)cc3)c3ccc(-c4ccc(C(C)(C)C)cc4)cc3)cc2)c(C)c1 | 4 nM | 57% |

— US8907103B2, “Glucagon antagonists” (Metabasis Therapeutics, Inc., priority 2008, dated 2014)
